Results: ChEMBL document CHEMBL5725965, “Isoxazole derivatives as FXR agonists and methods of use thereof” (2018)

Biological target: T1, Bile acid receptor (Homo sapiens, UniProt Q96RI1)
T1 sequence (Q96RI1 whole entry): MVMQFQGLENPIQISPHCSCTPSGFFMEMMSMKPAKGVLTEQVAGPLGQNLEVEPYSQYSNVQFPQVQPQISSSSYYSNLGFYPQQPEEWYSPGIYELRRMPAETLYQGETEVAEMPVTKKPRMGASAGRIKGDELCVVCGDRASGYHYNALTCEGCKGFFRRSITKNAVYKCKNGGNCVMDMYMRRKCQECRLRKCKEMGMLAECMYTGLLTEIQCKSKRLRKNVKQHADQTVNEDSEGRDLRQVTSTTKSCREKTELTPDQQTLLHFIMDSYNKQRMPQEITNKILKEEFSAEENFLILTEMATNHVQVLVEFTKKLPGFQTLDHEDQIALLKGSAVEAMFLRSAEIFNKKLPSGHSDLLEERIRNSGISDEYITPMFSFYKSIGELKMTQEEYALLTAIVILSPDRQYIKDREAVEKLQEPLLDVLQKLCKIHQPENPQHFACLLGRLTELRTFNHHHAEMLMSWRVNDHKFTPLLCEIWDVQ
Assay: FXR Reporter Assay kit purchased from Indigo Bioscience (Catalogue number: IB00601) to determine the potency and efficacy of compound developed by Enanta that can induce FXR activation. The principle application of this reporter assay system is to quantify functional activity of human FXR. The assay utilizes non-human mammalian cells, CHO (Chinese hamster ovary) cells engineered to express human NR1H4 protein (referred to as FXR). Reporter cells also incorporate the cDNA encoding beetle luciferase which catalyzes the substrates and yields photon emission. Luminescence intensity of the reaction is quantified using a plate-reading luminometer, Envision. Reporter Cells include the luciferase reporter gene functionally linked to an FXR responsive promoter. Thus, quantifying changes in luciferase expression in the treated reporter cells provides a sensitive surrogate measure of the changes in FXR activity. […] The assay is according to the manufacturer's instructions. In brief, the assay was performed in white, 96 well plates using final volume of 100 μl containing cells with different doses of compounds. Retrieve Reporter Cells from −80° C. storage. Perform a rapid thaw of the frozen cells by transferring a 10 ml volume of 37° C. cell recovery medium into the tube of frozen cells. Recap the tube of Reporter Cells and immediately place it in a 37° C. water bath for 5-10 minutes. […]
Assay type: cell-based

With `CN(C)S(=O)(=O)NC(=O)c1ccc2nc(N3C4CC[C@H]3C[C@H](OCc3c(-c5c(Cl)cccc5Cl)noc3C3CC3)C4)sc2c1` the EC50 was < 100 nM.
